The supplement of paper PMC10307832

Experiments:
Assay in all cases: relative viability (nuclei count vs DMSO), 5 days (fraction); higher = more cells survive
Crizotinib + Decitabine = compound: C[C@@H](Oc1cc(-c2cnn(C3CCNCC3)c2)cnc1N)c1c(Cl)ccc(F)c1Cl [Crizotinib] + Nc1ncn([C@H]2C[C@H](O)[C@@H](CO)O2)c(=O)n1 [Decitabine] (partner 2 µM)
Procedure, shortened: (§1)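 Lung cancer cell lines were seeded in 1536-well plates and dosed by pin tool the next day, with either a single drug or a fixed anchor-drug dose combined with five library-drug doses (not always all listed) spaced in √10 steps. Five days later, one step fixed the cells and stained their nuclei (final 0.05% Triton X-100, 1% formaldehyde, 1 ug/ml Hoechst), and nuclei were counted on 4× images. Relative viability is the nuclei count in treated wells divided by the count in vehicle wells, and each value is the median of duplicate plates.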

Olaparib + Foretinib = compound: O=C(c1cc(Cc2n[nH]c(=O)c3ccccc23)ccc1F)N1CCN(C(=O)C2CC2)CC1 [Olaparib] + COc1cc2c(Oc3ccc(NC(=O)C4(C(=O)Nc5ccc(F)cc5)CC4)cc3F)ccnc2cc1OCCCN1CCOCC1 [Foretinib] (partner 0.25 µM)
Procedure, shortened: as §1

Olaparib + Phenformin = compound: O=C(c1cc(Cc2n[nH]c(=O)c3ccccc23)ccc1F)N1CCN(C(=O)C2CC2)CC1 [Olaparib] + N=C(N)NC(=N)NCCc1ccccc1 [Phenformin] (partner 250 µM)
Procedure, shortened: as §1

Olaparib + Linsitinib = compound: O=C(c1cc(Cc2n[nH]c(=O)c3ccccc23)ccc1F)N1CCN(C(=O)C2CC2)CC1 [Olaparib] + C[C@]1(O)C[C@@H](c2nc(-c3ccc4ccc(-c5ccccc5)nc4c3)c3c(N)nccn32)C1 [Linsitinib] (partner 1 µM)
Procedure, shortened: as §1

Cell Line	relative viability (Crizotinib + Decitabine; first compound 0.01 µM)	relative viability (Crizotinib + Decitabine; first compound 0.03162 µM)	relative viability (Crizotinib + Decitabine; first compound 0.1 µM)	relative viability (Crizotinib + Decitabine; first compound 0.3162 µM)	relative viability (Crizotinib + Decitabine; first compound 1 µM)	relative viability (Olaparib + Foretinib; first compound 0.08 µM)	relative viability (Olaparib + Foretinib; first compound 0.253 µM)	relative viability (Olaparib + Foretinib; first compound 2.53 µM)	relative viability (Olaparib + Foretinib; first compound 8 µM)	relative viability (Olaparib + Phenformin; first compound 0.08 µM)	relative viability (Olaparib + Phenformin; first compound 0.253 µM)	relative viability (Olaparib + Phenformin; first compound 2.53 µM)	relative viability (Olaparib + Phenformin; first compound 8 µM)	relative viability (Olaparib + Linsitinib; first compound 0.08 µM)	relative viability (Olaparib + Linsitinib; first compound 0.253 µM)	relative viability (Olaparib + Linsitinib; first compound 2.53 µM)	relative viability (Olaparib + Linsitinib; first compound 8 µM)
NCI-H441	0.242	0.238	0.248	0.23	0.244	1.13	0.857	0.967	0.83	0.824	0.873	0.951	0.706	0.658	0.528	0.544	0.485
NCI-H460	0.451	0.511	0.476	0.645	0.452	0.925	0.889	0.914	0.437	0.598	0.44	0.443	0.233	0.86	0.614	0.316	0.191
NCI-H520	0.474	0.47	0.496	0.533	0.482	0.848	0.761	0.624	0.359	0.645	0.624	0.495	0.385	1.17	0.825	0.872	0.663
NCI-H596	–	0.993	1.01	1.08	1.11	0.927	0.82	0.828	0.534	0.76	0.732	0.653	0.66	1.04	0.856	0.923	0.744
NCI-H647	0.396	0.382	0.262	0.508	0.448	1.19	1.04	1.13	1.07	0.69	0.431	0.518	0.507	1.4	1.05	0.919	0.779
NCI-H650	0.332	0.291	0.323	–	0.343	1.11	1.02	0.909	0.794	0.541	0.423	0.473	0.429	0.806	0.735	0.776	0.724
NCI-H661	0.546	0.533	0.531	0.594	0.569	1.16	0.97	0.948	0.775	0.219	0.278	0.273	0.253	0.773	0.593	0.518	0.573
NCI-H727	0.763	0.769	0.836	0.763	0.796	0.843	1.06	0.911	0.703	0.634	0.662	0.556	0.396	0.283	0.241	0.247	0.282
NCI-H838	0.433	0.473	0.473	0.483	0.474	1.18	0.921	1.02	1.01	0.569	0.589	0.641	0.589	1.05	0.928	0.971	0.933
NCI-H1355	0.348	0.344	0.392	0.338	0.346	1.12	0.941	1	0.832	0.478	0.433	0.47	0.432	0.882	0.811	0.775	0.637
NCI-H1395	0.661	0.688	0.743	0.791	0.732	1.04	0.87	0.842	0.563	0.419	0.4	0.423	0.396	1.14	0.896	0.67	0.734
NCI-H1437	0.547	0.551	0.613	0.61	0.578	1.3	1.12	1.08	0.914	0.301	0.27	0.279	0.296	1.18	0.927	1.02	0.788
NCI-H1651	0.592	0.407	0.63	0.326	0.591	0.828	0.681	0.544	0.301	0.365	0.326	0.234	0.195	1.01	0.821	0.679	0.297
NCI-H1666	0.744	0.651	0.715	0.712	0.673	0.936	0.867	0.793	0.823	0.575	0.545	0.502	0.523	0.901	0.841	0.75	0.655
NCI-H1734	0.466	0.5	0.493	–	0.493	0.885	0.782	0.851	0.637	0.46	0.325	0.35	0.372	0.998	0.809	0.799	0.579
NCI-H1755	0.639	0.713	0.755	0.694	0.661	0.922	0.898	0.868	0.787	0.62	0.593	0.592	0.575	1.03	0.917	0.92	0.918
NCI-H1915	0.229	0.256	0.261	0.258	0.26	1.06	1.02	0.717	0.604	0.393	0.347	0.344	0.288	1.14	1.02	0.734	0.651
NCI-H1944	0.387	0.412	0.463	0.409	0.45	0.704	0.784	0.648	0.603	0.189	0.184	0.202	0.192	1.22	1.05	1.12	0.876
